From PubChem BioAssay (NCI)
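96-well plates; 48 h exposure; 5 concentrations. Endpoints by linear interpolation between flanking doses. Not reached: highest tested concentration assigned. Here, GI50 denotes the concentration required for 50% inhibition of growth. TGI: total growth inhibition.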

Experiments:
Assay in all cases: DTP human tumour cell line panel, 48 h
K-562 leukemia = tested on: K-562 leukemia
MCF7 breast = tested on: MCF7 breast
786-0 renal = tested on: 786-0 renal
MDA-MB-231 breast = tested on: MDA-MB-231 breast
PC-3 prostate = tested on: PC-3 prostate
SW-620 colon = tested on: SW-620 colon
CAKI-1 renal = tested on: CAKI-1 renal
SK-MEL-2 melanoma = tested on: SK-MEL-2 melanoma
MDA-MB-435 = tested on: MDA-MB-435
SF-268 CNS = tested on: SF-268 CNS
RPMI-8226 leukemia = tested on: RPMI-8226 leukemia
SF-295 CNS = tested on: SF-295 CNS
IGROV1 ovarian = tested on: IGROV1 ovarian
COLO 205 colon = tested on: COLO 205 colon
SN12C renal = tested on: SN12C renal
UACC-62 melanoma = tested on: UACC-62 melanoma
OVCAR-3 ovarian = tested on: OVCAR-3 ovarian
SK-OV-3 ovarian = tested on: SK-OV-3 ovarian
OVCAR-4 ovarian = tested on: OVCAR-4 ovarian
T-47D breast = tested on: T-47D breast
U251 CNS = tested on: U251 CNS
UO-31 renal = tested on: UO-31 renal
A549 NSCLC = tested on: A549 NSCLC
SF-539 CNS = tested on: SF-539 CNS
CCRF-CEM leukemia = tested on: CCRF-CEM leukemia
HCT-116 colon = tested on: HCT-116 colon
SK-MEL-28 melanoma = tested on: SK-MEL-28 melanoma
BT-549 breast = tested on: BT-549 breast
NCI-H23 lung = tested on: NCI-H23 lung
UACC-257 melanoma = tested on: UACC-257 melanoma
SNB-75 CNS = tested on: SNB-75 CNS
NCI-H460 lung = tested on: NCI-H460 lung
HCT-15 colon = tested on: HCT-15 colon
RXF 393 renal = tested on: RXF 393 renal
HOP-92 NSCLC = tested on: HOP-92 NSCLC
A498 renal = tested on: A498 renal
SK-MEL-5 melanoma = tested on: SK-MEL-5 melanoma
LOX IMVI melanoma = tested on: LOX IMVI melanoma
HS 578T breast = tested on: HS 578T breast
ACHN renal = tested on: ACHN renal
SR leukemia = tested on: SR leukemia
MOLT-4 leukemia = tested on: MOLT-4 leukemia
NCI/ADR-RES ovarian = tested on: NCI/ADR-RES ovarian
KM12 colon = tested on: KM12 colon
M14 melanoma = tested on: M14 melanoma
OVCAR-8 ovarian = tested on: OVCAR-8 ovarian
HT29 colon = tested on: HT29 colon
TK-10 renal = tested on: TK-10 renal
HOP-62 NSCLC = tested on: HOP-62 NSCLC
HCC-2998 colon = tested on: HCC-2998 colon
HL-60(TB) leukemia = tested on: HL-60(TB) leukemia
NCI-H522 lung = tested on: NCI-H522 lung
NCI-H226 lung = tested on: NCI-H226 lung
DU-145 prostate = tested on: DU-145 prostate
OVCAR-5 ovarian = tested on: OVCAR-5 ovarian
MALME-3M melanoma = tested on: MALME-3M melanoma
SNB-19 CNS = tested on: SNB-19 CNS

`COc1cc(F)c(F)c(F)c1C(=O)c1cnc(NC2CCN(S(C)(=O)=O)CC2)nc1N` showed a GI50 (K-562 leukemia) of 4.78 µM, a TGI (K-562 leukemia) of over 25 µM and a GI50 (MCF7 breast) of 0.166 µM. The TGI (MCF7 breast) was over 25 µM, the GI50 (786-0 renal) was 1.64 µM and the TGI (786-0 renal) was over 21.5 µM. The GI50 (MDA-MB-231 breast) was 1.26 µM, the TGI (MDA-MB-231 breast) was 16 µM and the GI50 (PC-3 prostate) was 0.476 µM. The TGI (PC-3 prostate) was 9.3 µM, the GI50 (SW-620 colon) was 0.409 µM and the TGI (SW-620 colon) was over 25 µM. It also gave a GI50 (CAKI-1 renal) of 0.843 µM, a TGI (CAKI-1 renal) of 10.8 µM and a GI50 (SK-MEL-2 melanoma) of 3.02 µM. It also gave a TGI (SK-MEL-2 melanoma) of 7.46 µM, a GI50 (MDA-MB-435) of 0.782 µM and a TGI (MDA-MB-435) of 7.18 µM. For the same molecule, the GI50 (SF-268 CNS) was 2.78 µM, the TGI (SF-268 CNS) was over 18.9 µM and the GI50 (RPMI-8226 leukemia) was 0.417 µM. It also gave a TGI (RPMI-8226 leukemia) of 9.66 µM, a GI50 (SF-295 CNS) of 1.58 µM and a TGI (SF-295 CNS) of over 9.45 µM. For the same molecule, the GI50 (IGROV1 ovarian) was 1.12 µM, the TGI (IGROV1 ovarian) was 21 µM and the GI50 (COLO 205 colon) was 0.783 µM. It also gave a TGI (COLO 205 colon) of 4.49 µM, a GI50 (SN12C renal) of 1.96 µM and a TGI (SN12C renal) of over 25 µM. It also gave a GI50 (UACC-62 melanoma) of 1.49 µM, a TGI (UACC-62 melanoma) of 7.98 µM and a GI50 (OVCAR-3 ovarian) of 2.33 µM. For the same molecule, the TGI (OVCAR-3 ovarian) was over 19 µM, the GI50 (SK-OV-3 ovarian) was 11.6 µM and the TGI (SK-OV-3 ovarian) was over 25 µM. For the same molecule, the GI50 (OVCAR-4 ovarian) was 3.29 µM, the TGI (OVCAR-4 ovarian) was over 25 µM and the GI50 (T-47D breast) was 2.64 µM. It also gave a TGI (T-47D breast) of over 24.1 µM, a GI50 (U251 CNS) of 0.78 µM and a TGI (U251 CNS) of over 25 µM. For the same molecule, the GI50 (UO-31 renal) was 1.6 µM, the TGI (UO-31 renal) was 13.4 µM and the GI50 (A549 NSCLC) was 1 µM. For the same molecule, the TGI (A549 NSCLC) was over 25 µM, the GI50 (SF-539 CNS) was 1.24 µM and the TGI (SF-539 CNS) was 6.06 µM. It also gave a GI50 (CCRF-CEM leukemia) of 1.21 µM, a TGI (CCRF-CEM leukemia) of over 25 µM and a GI50 (HCT-116 colon) of 0.56 µM. The TGI (HCT-116 colon) was over 25 µM, the GI50 (SK-MEL-28 melanoma) was 2.24 µM and the TGI (SK-MEL-28 melanoma) was 18.4 µM. The GI50 (BT-549 breast) was 3.23 µM, the TGI (BT-549 breast) was 8.35 µM and the GI50 (NCI-H23 lung) was 1.24 µM. For the same molecule, the TGI (NCI-H23 lung) was 14.8 µM, the GI50 (UACC-257 melanoma) was 3 µM and the TGI (UACC-257 melanoma) was 14 µM. The GI50 (SNB-75 CNS) was 3.65 µM, the TGI (SNB-75 CNS) was 8.75 µM and the GI50 (NCI-H460 lung) was 0.428 µM. It also gave a TGI (NCI-H460 lung) of over 25 µM, a GI50 (HCT-15 colon) of 1.32 µM and a TGI (HCT-15 colon) of over 25 µM. For the same molecule, the GI50 (RXF 393 renal) was 0.534 µM, the TGI (RXF 393 renal) was 1.98 µM and the GI50 (HOP-92 NSCLC) was 0.41 µM. The TGI (HOP-92 NSCLC) was 7.11 µM, the GI50 (A498 renal) was 1.28 µM and the TGI (A498 renal) was 6.69 µM. It also gave a GI50 (SK-MEL-5 melanoma) of 0.986 µM, a TGI (SK-MEL-5 melanoma) of over 23.6 µM and a GI50 (LOX IMVI melanoma) of 1.04 µM. The TGI (LOX IMVI melanoma) was over 13 µM, the GI50 (HS 578T breast) was 3.17 µM and the TGI (HS 578T breast) was 18.1 µM. It also gave a GI50 (ACHN renal) of 0.906 µM, a TGI (ACHN renal) of over 25 µM and a GI50 (SR leukemia) of 0.371 µM. For the same molecule, the TGI (SR leukemia) was over 10 µM, the GI50 (MOLT-4 leukemia) was 0.845 µM and the TGI (MOLT-4 leukemia) was 11.4 µM. It also gave a GI50 (NCI/ADR-RES ovarian) of 5.16 µM, a TGI (NCI/ADR-RES ovarian) of over 25 µM and a GI50 (KM12 colon) of 0.958 µM. The TGI (KM12 colon) was over 14.4 µM, the GI50 (M14 melanoma) was 3.09 µM and the TGI (M14 melanoma) was 10.2 µM. The GI50 (OVCAR-8 ovarian) was 2.28 µM, the TGI (OVCAR-8 ovarian) was over 25 µM and the GI50 (HT29 colon) was 1.07 µM. It also gave a TGI (HT29 colon) of 15.2 µM, a GI50 (TK-10 renal) of 1.6 µM and a TGI (TK-10 renal) of 24.7 µM. It also gave a GI50 (HOP-62 NSCLC) of 2.11 µM, a TGI (HOP-62 NSCLC) of 16.2 µM and a GI50 (HCC-2998 colon) of 2.87 µM. For the same molecule, the TGI (HCC-2998 colon) was over 21.6 µM, the GI50 (HL-60(TB) leukemia) was 0.244 µM and the TGI (HL-60(TB) leukemia) was 6.31 µM. It also gave a GI50 (NCI-H522 lung) of 5.56 µM, a TGI (NCI-H522 lung) of 15.6 µM and a GI50 (NCI-H226 lung) of 1.86 µM. It also gave a TGI (NCI-H226 lung) of 15.7 µM, a GI50 (DU-145 prostate) of 2.58 µM and a TGI (DU-145 prostate) of over 22 µM. The GI50 (OVCAR-5 ovarian) was 1.45 µM, the TGI (OVCAR-5 ovarian) was over 25 µM and the GI50 (MALME-3M melanoma) was 3.95 µM. The TGI (MALME-3M melanoma) was 11.3 µM, the GI50 (SNB-19 CNS) was 1.39 µM and the TGI (SNB-19 CNS) was over 25 µM.
